Usually fold induction stands for the ratio of treated to control signal.

Like-named read-outs stand apart in the source and are kept apart here.

This note sets out measurements from article PMC9658513, “Discovery of Compounds That Selectively Repress the Amyloidogenic Processing of the Amyloid Precursor Protein: Design, Synthesis and Pharmacological Evaluation of Diphenylpyrazoles” (International Journal of Molecular Sciences, 2022).

Assay [1] relates to LC3. As to the kind of experiment: Autophagic flux: LC3-I lipidation into LC3-II by Western blot. Type of assay: cell-based. Particulars: Homo sapiens, 24 h, compound at 3 µM, SY5Y-APP^wt cells, vs control. An excerpt: Previous work dedicated to compounds of family C [22] has underlined the effect of our compounds on autophagic flux and the lysosomal degradation pathways. More precisely, the role of the amino side chains and their number was highlighted. Therefore, we assessed whether the activity of compounds involved the modulation of lysosomal activities toward the accumulation of APP-CTFs and AICD. Thus, we studied the effect of a selection of compounds on the autophagic flux, more particularly, we evaluated the effect of compounds 24, 33, 34, 57, 65, 67, 70, and 71 on two markers associated with autophagy: p62 and LC3-I lipidation into LC3-II. To the previous selection of efficient compounds decreasing Aβ1–x production and increasing CTFα and AICD, we added compound 65 with no cytotoxicity at 100 µM. As a comparison, we also selected compound 57 with a hydroxymethyl substituent as a control. In addition to CQ, bafilomycin A, a well-known inhibitor of autophagic flux, was used as a control. Treatment with compounds 67 and 71 induced an increase in p62 expression by 2.5 and 4-fold, respectively, compared to the control condition (Figure 3). […] An increase in the two markers was also observed with compound 57, but to a smaller extent (1.7-fold for p62 and 2-fold for LC3-I/LC3-II).
The human neuroblastoma cell line SY5Y-APP^695WT was maintained in Dulbecco’s modified Eagle medium (DMEM, high glucose, pyruvate—GIBCO, Life Technologies, Carlsbad, CA, USA) supplemented with 10% fetal bovine serum, 2 mM L-glutamine, 1 mM non-essential amino acids and penicillin/streptomycin (GIBCO, Life Technologies, Carlsbad, CA, USA) at 37 °C in a 5% CO2 humidified incubator [36]. For compound treatment, a 10 mM stock solution was diluted in freshly supplemented DMEM medium to obtain the precise final concentration of the drug. Cells were plated at a density of 5 × 10^5 cells per well into 12-well plates and cultured with 1 mL supplemented DMEM cell medium for 24 h before compound exposure. The following day, the cell medium was replaced with fresh medium containing the compounds diluted at the indicated concentrations. Cells were treated for 24 h. At the end of the treatments, the cell medium was collected and kept at −80 °C until use, cells were rinsed once with PBS and extracted in 100 µL of Laemmli buffer (10 mM Tris, 20% glycerol, and 2% sodium dodecyl sulfate) using a cell-scraper. The cell lysate was further sonicated (30 pulses of 0.5 s, 60 Hz) for 5 min. Total protein concentration was determined using the Pierce BCA Protein Assay Kit (Thermo Scientific, Waltham, MA, USA) according to the manufacturer’s instructions. Samples were stored at −80 °C until analysis.
Cell protein lysates were prepared for Western blot analysis by diluting the sample with 1 volume of NuPAGE® lithium dodecyl sulfate (LDS) 2X sample buffer supplemented with 20% NuPAGE® sample reducing agents (Invitrogen). Samples were heated for 10 min at 100 °C. Ten µg of total proteins per well were loaded onto precast 4–12% Criterion XT Bis-Tris polyacrylamide gels (Bio-Rad) and electrophoresis was achieved after applying a tension of 150 V for 90 min using a Criterion electrophoresis cell with the NuPAGE® MOPS SDS running buffer (1X). Proteins were transferred to a nitrocellulose membrane of […] pore size (G&E Healthcare, Madison, WI, USA) using the Criterion blotting system and applying a tension of 100 V for 45 min. To resolve proteins of low molecular weights such as carboxy-terminal fragments of APP, 12% Criterion XT Bis-Tris polyacrylamide gels (Bio-Rad, Hercules, CA, USA) were used, and electrophoresis was performed for 70 min at 150 V in a NuPAGE® MES SDS running buffer (1X). Proteins were transferred to a nitrocellulose membrane of 0.2 µm pore size (G&E Healthcare, Madison, WI, USA) at 100 V for 40 min. Molecular weight calibration was achieved using molecular weight markers (Novex and Magic Marks, Life Technologies, Carlsbad, CA, USA). […]
(In general: Immunoblotting shows a protein as a band on a membrane.)

Assay [2] deals with αCTF (APP carboxy-terminal fragment). Nature of the assay: αCTF level by Western blotting in SY5Y-APP^WT cells. Format: cell-based, human. Particulars: for C20 for CTFα and AICD: CTFα and AICD together; for EC (20-fold increase): concentration increasing αCTF 20-fold vs untreated control, SY5Y-APP^WT cells, read-out: αCTF (C20). A digest of the protocol: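 SH-SY5Y cells stably expressing human wild-type APP695 treated with compounds for 24 h at 37 °C. αCTF and AICD measured by Western blot of lysates (10 µg protein, 12% Bis-Tris gels) as band intensity; C20 is concentration raising these fragments 20-fold over control.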

In assay [1], `Cc1cn(-c2cccc(CN(C)C)c2)nc1-c1ccc(CN(C)CCCN(C)C)cc1` [Compound 67, {[4-(1-{3-[(Dimethylamino)methyl]phenyl}-4-methyl-1H-pyrazol-3-yl)phenyl]methyl} [3-(Dimethylamino)propyl]methylamine] displayed a fold induction at 3 µM of 5.2. Also, in assay [2], the “C20 for CTFα and AICD” value was “around 1 µM”. Also, the EC (20-fold increase) in assay [2] (Homo sapiens) came to 1.4 µM.
For the compound `CN(C)CCCc1ccc(-c2nn(-c3ccc(CN(C)C)cc3)cc2CN(C)C)cc1` [Compound 24, 3-[4-[4-(Dimethylaminomethyl)-1-[4-(dimethylaminomethyl)phenyl] Pyrazol-3-yl]phenyl]-N,N-dimethyl-propan-1-amine], the fold induction at 3 µM in assay [1] stood at 3.3. In addition, the EC (20-fold increase) in assay [2] (Homo sapiens) was determined as 1.6 µM.
The compound `Cc1cn(-c2cccc(CN3CCN(C)CC3)c2)nc1-c1cccc(CN(C)CCCN(C)C)c1` [Compound 71, N,N,N′-Trimethyl-N′-[[3-[4-methyl-1-[3-[(4-methylpiperazin-1-yl)methyl]phenyl]pyrazol-3-yl]phenyl]methyl]propane-1,3-diamine] showed a fold induction at 3 µM in assay [1] of 6.5. In addition, in assay [2], the “C20 for CTFα and AICD” value is given as “around 1 µM”. In assay [2] (Homo sapiens), the EC (20-fold increase) is 0.7 µM.
In assay [1], `Cc1cn(-c2cccc(CN(C)C)c2)nc1-c1cccc(CN(C)CCCN(C)C)c1` [Compound 70, N′-[[3-[1-[3-(Dimethylaminomethyl)phenyl]-4-methyl-pyrazol-3-yl]phenyl] Methyl]-N,N,N′-trimethyl-propane-1,3-diamine] registered a fold induction at 3 µM of 6. For the same compound, the EC (20-fold increase) in assay [2] (Homo sapiens) worked out at 1.3 µM.
For `Cc1cn(-c2cccc(CN3CCN(C)CC3)c2)nc1-c1cccc(CN(C)C)c1` [Compound 65, N,N-dimethyl-1-[3-[4-methyl-1-[3-[(4-methylpiperazin-1-yl)methyl]phenyl]pyrazol-3-yl]phenyl]methanamine], in that order: 2.63 and 1.7 µM.
With “N′-[[4-[4-[3-(Dimethylamino)propyl]-3-[4-[3-(dimethylamino)propyl]phenyl] Pyrazol-1-yl]phenyl]methyl]-N,N,N′-trimethyl-propane-1,3-diamine [Compound 33]”, the EC (20-fold increase) in assay [2] came out at 6.1 µM.
Compound `Cc1cn(-c2cccc(CO)c2)nc1-c1ccc(CN(C)CCCN(C)C)cc1` [Compound 57, (3-{3-[4-({[3-(Dimethylamino)propyl](methyl)amino}methyl)phenyl]-4-methyl-1H-pyrazol-1-yl}phenyl)methanol] gave a fold induction at 3 µM in assay [1] of 2. For the same compound, the EC (20-fold increase) in assay [2] (Homo sapiens) was over 10 µM.
